From patent US20240182481A1 (Tango Therapeutics, Inc., priority 2021, published 2024)
Where two headings read alike, the source gives them in different places.

Legend:
[1] = target: USP1-UAF1 (Homo sapiens, UniProt O94782); experiment: Ubiquitin Rhodamine assay for USP1-UAF1 activity; type: biochemical
Description: Certain compounds of the disclosure were assessed for USP1-UAF1 activity in a Ubiquitin Rhodamine assay as described in Example 135.

[2] = tested on: HCC1954 (BRCA1 WT) cell line; experiment: Viability assay in BRCA1 WT cell line HCC1954; type: cell-based; details: read-out: HCC 1954 IC50 rel IC50
From the text: (§1) Table 1 also indicates IC50 values in a viability assay for a non-isogenic pair of BRCA1 mutant (column 5—MDA-MB-436) and BRCA1 WT (column 6—HCC1954) cell lines. These values indicate the effect of treatment with compound on cell survival.

[3] = tested on: MDA-MB-436 (BRCA1 mutant) cell line; experiment: Viability assay in BRCA1 mutant cell line MDA-MB-436; type: cell-based; details: Homo sapiens, MDA-MB-436, viability, BRCA1 mutant MDA-MB-436; read-out: MDA-MB-436 rel IC50
From the text: as §1

Sequence of USP1-UAF1 (O94782 whole entry): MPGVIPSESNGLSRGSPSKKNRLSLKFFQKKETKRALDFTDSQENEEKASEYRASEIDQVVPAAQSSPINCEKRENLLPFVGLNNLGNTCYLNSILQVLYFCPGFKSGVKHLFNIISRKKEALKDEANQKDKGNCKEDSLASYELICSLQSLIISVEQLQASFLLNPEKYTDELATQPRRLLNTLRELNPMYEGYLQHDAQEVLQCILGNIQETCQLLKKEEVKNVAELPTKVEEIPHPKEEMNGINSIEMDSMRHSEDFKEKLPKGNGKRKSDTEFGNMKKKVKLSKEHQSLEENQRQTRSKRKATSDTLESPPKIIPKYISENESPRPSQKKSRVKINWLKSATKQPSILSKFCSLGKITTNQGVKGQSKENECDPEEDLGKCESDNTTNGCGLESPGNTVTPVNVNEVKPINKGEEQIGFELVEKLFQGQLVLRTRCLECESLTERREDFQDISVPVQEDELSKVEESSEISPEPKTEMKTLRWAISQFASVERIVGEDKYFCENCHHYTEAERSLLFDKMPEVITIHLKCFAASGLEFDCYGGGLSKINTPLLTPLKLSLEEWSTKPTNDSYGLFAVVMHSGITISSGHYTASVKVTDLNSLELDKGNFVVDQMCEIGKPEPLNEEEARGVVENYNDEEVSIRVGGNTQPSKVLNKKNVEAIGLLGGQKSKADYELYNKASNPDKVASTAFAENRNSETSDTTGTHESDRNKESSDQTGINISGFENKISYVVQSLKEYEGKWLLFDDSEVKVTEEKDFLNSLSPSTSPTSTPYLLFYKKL
Sequence of USP1-UAF1 (Q8TAF3 whole entry partner): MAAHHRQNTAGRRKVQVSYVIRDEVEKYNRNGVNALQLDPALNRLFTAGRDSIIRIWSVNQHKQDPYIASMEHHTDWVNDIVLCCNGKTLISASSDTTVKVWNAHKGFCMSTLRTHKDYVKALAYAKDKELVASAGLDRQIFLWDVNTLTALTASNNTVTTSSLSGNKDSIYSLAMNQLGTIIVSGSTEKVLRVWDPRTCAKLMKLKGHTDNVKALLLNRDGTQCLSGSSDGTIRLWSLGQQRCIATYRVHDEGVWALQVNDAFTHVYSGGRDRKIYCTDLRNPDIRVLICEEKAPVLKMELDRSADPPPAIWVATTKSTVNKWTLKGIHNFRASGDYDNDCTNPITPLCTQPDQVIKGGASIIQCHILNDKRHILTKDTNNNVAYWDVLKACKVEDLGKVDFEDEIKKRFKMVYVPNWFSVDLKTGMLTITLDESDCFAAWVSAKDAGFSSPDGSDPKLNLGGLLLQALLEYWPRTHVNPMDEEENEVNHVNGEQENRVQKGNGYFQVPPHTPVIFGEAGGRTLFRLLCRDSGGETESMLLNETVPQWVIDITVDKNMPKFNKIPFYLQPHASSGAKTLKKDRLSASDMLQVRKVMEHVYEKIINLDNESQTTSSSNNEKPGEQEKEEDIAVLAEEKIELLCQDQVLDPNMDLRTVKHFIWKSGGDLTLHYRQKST

Row | Compound | IC50 [1] | IC50 ([2]; Homo sapiens) | IC50 [3] | IC50 [2]
1 | COc1ncnc(C(C)C)c1-c1ncc2[nH]nc(Cc3ccc(-c4nc(C(F)(F)F)cn4C)cc3)c2n1 [Compound 112] | < 30 nM | – | – | –
2 | Cn1cc(C(F)(F)F)nc1-c1ccc(Cc2c[nH]c3cnc(-c4ccccc4CO)nc23)cc1 [Compound 72] | 100 to 10000 nM | ≥ 10 µM | 0.25 to 10 µM | –
3 | Cn1cc(C(F)(F)F)nc1-c1ccc([S+]([O-])c2c[nH]c3cnc(-c4ccccc4C(F)(F)F)nc23)cc1 (centres unmarked) [Compound 36, 7-[4-[1-methyl-4-(trifluoromethyl)imidazol-2-yl]phenyl]sulfinyl-2-[2-(trifluoromethyl)phenyl]-5H-pyrrolo[3,2-d]pyrimidine] | 100 to 10000 nM | – | – | –
4 | COc1ncnc(C2CC2)c1-c1ncc2[nH]cc(C(O)c3ccc(-c4nc(C(F)(F)F)cn4C4CC4)cc3)c2n1 (centres unmarked) [Compound 19, [2-(4-cyclopropyl-6-methoxy-pyrimidin-5-yl)-5H-pyrrolo[3,2-d]pyrimidin-7-yl]-[4-[1-cyclopropyl-4-(trifluoromethyl)imidazol-2-yl]phenyl]methanol] | 100 to 10000 nM | – | – | –
5 | CN(C)Cc1ccccc1-c1ncc2[nH]cc(C(O)c3ccc(-c4nc(C(F)(F)F)cn4C)cc3)c2n1 (centres unmarked) [Compound 3] | ≥ 10000 nM | ≥ 10 µM | ≥ 10 µM | –
6 | COc1ncnc(C2CC2)c1-c1ncc2[nH]cc(C(O)c3ccc(-c4nc(C(F)(F)F)cn4C)cc3)c2n1 (centres unmarked) [Compound 49, [2-(4-cyclopropyl-6-methoxy-pyrimidin-5-yl)-5H-pyrrolo[3,2-d]pyrimidin-7-yl]-[4-[1-methyl-4-(trifluoromethyl)imidazol-2-yl]phenyl]methanol] | 100 to 10000 nM | ≥ 10 µM | 0.25 to 10 µM | –
7 | COc1ncnc(C(C)(C)C)c1-c1ncc2[nH]nc(Cc3ccc(-c4nc(C(F)(F)F)cn4C)cc3)c2n1 [Compound 158] | < 30 nM | – | – | –
8 | COc1ncnc(C2CC2)c1-c1ncc2c(n1)c(Cc1ccc(-c3nc(C(F)(F)F)cn3C)cc1)cn2C [Compound 39, 2-(4-cyclopropyl-6-methoxy-pyrimidin-5-yl)-5-methyl-7-[[4-[1-methyl-4-(trifluoromethyl)imidazol-2-yl]phenyl]methyl]pyrrolo[3,2-d]pyrimidine] | < 30 nM | ≥ 10 µM | < 0.1 µM | –
9 | CC(C)Oc1ncccc1-c1ncc2[nH]cc(Cc3ccc(-c4nc(C(F)(F)F)cn4C)cc3)c2n1 [Compound 55, 2-isopropoxy-3-[7-([4-[1-methyl-4-(trifluoromethyl)imidazol-2-yl]phenyl]methyl)-5H-pyrrolo[3,2-d]pyrimidin-2-yl]pyridine] | < 30 nM | ≥ 10 µM | < 0.1 µM | –
10 | Cn1cc(C(F)(F)F)nc1-c1ccc(Cc2c[nH]c3cnc(-c4cccnc4N4CCC45COC5)nc23)cc1 [Compound 77] | 100 to 10000 nM | ≥ 10 µM | 0.25 to 10 µM | –
11 | CN(c1ccc(-c2nc(C(F)(F)F)cn2C)cc1)c1c[nH]c2cnc(-c3ccccc3C3CC3)nc12 [Compound 13, 2-(2-cyclopropylphenyl)-N-methyl-N-[4-[1-methyl-4-(trifluoromethyl)imidazol-2-yl]phenyl]-5H-pyrrolo[3,2-d]pyrimidin-7-amine] | 100 to 10000 nM | ≥ 10 µM | 0.25 to 10 µM | –
12 | Cn1cc(C(F)(F)F)nc1-c1ccc(Cc2c[nH]c3cnc(-c4cccnc4O)nc23)cc1 [Compound 56, 3-[7-([4-[1-methyl-4-(trifluoromethyl)imidazol-2-yl]phenyl]methyl)-5H-pyrrolo[3,2-d]pyrimidin-2-yl]pyridin-2-ol] | ≥ 10000 nM | ≥ 10 µM | ≥ 10 µM | –
13 | COc1ncnc(C2CC2)c1-c1ncc2[nH]cc(C(C)c3ccc(-c4nc(C(F)(F)F)cn4C)cc3)c2n1 (centres unmarked) [Compound 128] | < 30 nM | ≥ 10 µM | < 0.1 µM | –
14 | CC(C)c1ccccc1-c1ncc2[nH]cc(C(=O)c3ccc(-c4nc(C(F)(F)F)cn4C)cc3)c2n1 [Compound 86, [2-(2-isopropylphenyl)-5H-pyrrolo[3,2-d]pyrimidin-7-yl]-[4-[1-methyl-4-(trifluoromethyl)imidazol-2-yl]phenyl]methanone] | ≥ 10000 nM | 0.25 to 10 µM | 0.25 to 10 µM | –
15 | Cn1cc(C(F)(F)F)nc1-c1ccc(S(=O)(=O)c2c[nH]c3cnc(-c4ccccc4C(F)(F)F)nc23)cc1 [Compound 46, 7-[4-[1-methyl-4-(trifluoromethyl)imidazol-2-yl]phenyl]sulfonyl-2-[2-(trifluoromethyl)phenyl]-5H-pyrrolo[3,2-d]pyrimidine] | 100 to 10000 nM | – | – | –
16 | Cn1cc(C(F)(F)F)nc1-c1ccc(Cc2n[nH]c3cnc(-c4c(OCF)ncnc4C4CC4)nc23)cc1 [Compound 169] | < 30 nM | – | – | –
17 | Cn1cc(C(F)(F)F)nc1-c1ccc(C(O)c2c[nH]c3cnc(-c4cccnc4C4CC4)cc23)cc1 (centres unmarked) [Compound 30, [5-(2-cyclopropylpyridin-3-yl)-1H-pyrrolo[2,3-c]pyridin-3-yl]([4-[1-methyl-4-(trifluoromethyl)imidazol-2-yl]phenyl])methanol] | 100 to 10000 nM | ≥ 10 µM | ≥ 10 µM | –

Row | Compound | IC50 [1] | IC50 ([2]; Homo sapiens) | IC50 [3] | IC50 [2]
18 | CN(Cc1ccccc1-c1ncc2[nH]cc(Cc3ccc(-c4nc(C(F)(F)F)cn4C)cc3)c2n1)CC(F)(F)F [Compound 61] | 30 to 100 nM | 0.25 to 10 µM | 0.25 to 10 µM | –
19 | Cn1cc(C(F)(F)F)nc1-c1ccc(Cc2c[nH]c3cnc(-c4c(OCF)ncnc4C4CC4)nc23)cc1 [Compound 173, 2-[4-cyclopropyl-6-(fluoromethoxy)pyrimidin-5-yl]-7-[[4-[1-methyl-4-(trifluoromethyl)imidazol-2-yl]phenyl]methyl]-5H-pyrrolo[3,2-d]pyrimidine] | < 30 nM | ≥ 10 µM | < 0.1 µM | –
20 | COc1ncnc(C2CC2)c1-c1ncc2[nH]cc(C(C)c3ccc(-c4nc(C(F)(F)F)cn4C)cc3)c2n1 (single isomer, unassigned) [Compound 192] | – | – | – | 0.25 to 10 µM
21 | COCCc1[nH]c2cnc(-c3c(OC)ncnc3C3CC3)nc2c1C(O)c1ccc(-c2nc(C(F)(F)F)cn2C)cc1 (centres unmarked) [Compound 109, [2-(4-cyclopropyl-6-methoxy-pyrimidin-5-yl)-6-(2-methoxyethyl)-5H-pyrrolo[3,2-d]pyrimidin-7-yl]-[4-[1-methyl-4-(trifluoromethyl)imidazol-2-yl]phenyl]methanol] | 100 to 10000 nM | ≥ 10 µM | 0.25 to 10 µM | –
22 | CCn1c(C(F)(F)F)cnc1-c1ccc(C(O)c2c[nH]c3cnc(-c4c(OC)ncnc4C4CC4)nc23)cc1 (centres unmarked) [Compound 75] | ≥ 10000 nM | ≥ 10 µM | ≥ 10 µM | –
23 | CN1CC(n2cc(C(F)(F)F)nc2-c2ccc(C(O)c3c[nH]c4cnc(-c5cccnc5OC(F)F)nc34)cc2)C1 (centres unmarked) [Compound 38, [2-[2-(difluoromethoxy)-3-pyridyl]-5H-pyrrolo[3,2-d]pyrimidin-7-yl]-[4-[1-(1-methylazetidin-3-yl)-4-(trifluoromethyl)imidazol-2-yl]phenyl]methanol] | ≥ 10000 nM | ≥ 10 µM | ≥ 10 µM | –
24 | Cn1cc(C(F)(F)F)nc1-c1ccc(C(=O)c2c[nH]c3cnc(-c4cccnc4C4CC4)cc23)cc1 [Compound 53] | ≥ 10000 nM | ≥ 10 µM | ≥ 10 µM | –
25 | CN(C)Cc1ccccc1-c1ncc2[nH]cc(Cc3ccc(-c4nc(C(F)(F)F)cn4C)cc3)c2n1 [Compound 9] | ≥ 10000 nM | ≥ 10 µM | ≥ 10 µM | –
26 | Cn1cc(C(F)(F)F)nc1-c1ccc(Cc2c[nH]c3cnc(-c4ccccc4C(C)(C)O)nc23)cc1 [Compound 157, 2-(2-(7-(4-(1-methyl-4-(trifluoromethyl)-1H-imidazol-2-yl)benzyl)-5H-pyrrolo[3,2-d]pyrimidin-2-yl)phenyl)propan-2-ol] | < 30 nM | – | – | –
27 | COc1ncnc(C2CC2)c1-c1ncc2[nH]nc(Cc3ccc(-c4nc(C(F)(F)F)cn4C(C)C)cc3)c2n1 [Compound 16, 5-(4-cyclopropyl-6-methoxy-pyrimidin-5-yl)-3-[[4-[1-isopropyl-4-(trifluoromethyl)imidazol-2-yl]phenyl]methyl]-1H-pyrazolo[4,3-d]pyrimidine] | – | ≥ 10 µM | < 0.1 µM | –
28 | COc1ncnc(C2CC2)c1-c1ncc2[nH]cc(C(O)c3ccc(-c4nc(C#N)cn4C)cc3)c2n1 (centres unmarked) [Compound 37, 2-[4-[[2-(4-cyclopropyl-6-methoxy-pyrimidin-5-yl)-5H-pyrrolo[3,2-d]pyrimidin-7-yl]-hydroxy-methyl]phenyl]-1-methyl-imidazole-4-carbonitrile] | ≥ 10000 nM | – | – | –
29 | CCn1c(C(F)(F)F)cnc1-c1ccc(Cc2c[nH]c3cnc(-c4c(OC)ncnc4C4CC4)nc23)cc1 [Compound 70] | 100 to 10000 nM | – | – | –
30 | CO[C@@H](c1ccc(-c2nc(C(F)(F)F)cn2C)cc1)c1c[nH]c2cnc(-c3c(OC(F)F)ncnc3C3CC3)nc12 (single isomer, unassigned) [Compound 127] | 100 to 10000 nM | – | – | –
31 | CO[C@H](c1ccc(-c2nc(C(F)(F)F)cn2C)cc1)c1c[nH]c2cnc(-c3c(OC(F)F)ncnc3C3CC3)nc12 (single isomer, unassigned) [Compound 149] | < 30 nM | – | – | –
32 | COc1ncnc(C2CC2)c1-c1ncc2c(n1)c(Cc1ccc(-c3nc(C(F)(F)F)cn3C)cc1)cn2C1CC1 [Compound 170, 5-cyclopropyl-2-(4-cyclopropyl-6-methoxy-pyrimidin-5-yl)-7-[[4-[1-methyl-4-(trifluoromethyl)imidazol-2-yl]phenyl]methyl]pyrrolo[3,2-d]pyrimidine] | < 30 nM | – | – | –
33 | Cn1cc(C(F)(F)F)nc1-c1ccc(Cc2c[nH]c3cnc(-c4cccnc4N4CC(F)C4)nc23)cc1 [Compound 68] | 100 to 10000 nM | – | – | –
34 | COc1ncnc(C2CC2)c1-c1nc(CN)c2[nH]cc(Cc3ccc(-c4nc(C(F)(F)F)cn4C)cc3)c2n1 [Compound 201] | 100 to 10000 nM | – | – | –
